Measured values: publication PMC4775402 (Pharmacological research, 2016)
Each block holds one compound with its values, some of them ahead of it.

Tests used:
Type in all cases: cell-based
WT P2RY1 = WT P2RY1 (Homo sapiens, UniProt P47900); assay: Label-free DMR agonist response, HEK293T expressing WT P2RY1
ΔPDZ P2RY1 = ΔPDZ P2RY1 (Homo sapiens, UniProt P47900); assay: Label-free DMR agonist response, HEK293T expressing ΔPDZ P2RY1
WT P2RY12 = WT P2RY12 (Homo sapiens, UniProt Q9H244); assay: Label-free DMR agonist response, HEK293T expressing WT P2RY12
WT P2RY12, sequence (Q9H244 whole entry, one chain of several): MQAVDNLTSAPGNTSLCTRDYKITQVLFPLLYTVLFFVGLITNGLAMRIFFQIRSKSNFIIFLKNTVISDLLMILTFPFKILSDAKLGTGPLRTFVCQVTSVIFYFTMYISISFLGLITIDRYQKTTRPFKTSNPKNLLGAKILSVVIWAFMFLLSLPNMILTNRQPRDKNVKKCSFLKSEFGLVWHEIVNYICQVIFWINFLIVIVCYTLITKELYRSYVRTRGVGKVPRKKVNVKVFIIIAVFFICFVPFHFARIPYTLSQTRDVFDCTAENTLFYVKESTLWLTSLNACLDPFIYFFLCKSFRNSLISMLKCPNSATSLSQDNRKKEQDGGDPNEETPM

ΔPDZ P2RY12 = ΔPDZ P2RY12 (Homo sapiens, UniProt Q9H244); assay: Label-free DMR agonist response, HEK293T expressing ΔPDZ P2RY12
ΔPDZ P2RY12, sequence (Q9H244 1-338 limits assumed, stated change not applied, one chain of several): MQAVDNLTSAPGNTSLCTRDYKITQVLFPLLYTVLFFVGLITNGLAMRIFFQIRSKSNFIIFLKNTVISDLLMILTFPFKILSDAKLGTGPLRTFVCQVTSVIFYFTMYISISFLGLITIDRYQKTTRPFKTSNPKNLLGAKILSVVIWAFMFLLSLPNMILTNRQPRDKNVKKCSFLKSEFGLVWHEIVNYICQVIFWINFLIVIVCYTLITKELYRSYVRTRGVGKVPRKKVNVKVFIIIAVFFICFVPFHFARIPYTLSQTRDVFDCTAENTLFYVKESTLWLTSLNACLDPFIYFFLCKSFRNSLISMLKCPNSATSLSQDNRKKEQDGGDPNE

WT S1PR2 = WT S1PR2 (Homo sapiens, UniProt O95136); assay: Label-free DMR agonist response, HEK293T expressing WT S1PR2
WT S1PR2, sequence (O95136 whole entry): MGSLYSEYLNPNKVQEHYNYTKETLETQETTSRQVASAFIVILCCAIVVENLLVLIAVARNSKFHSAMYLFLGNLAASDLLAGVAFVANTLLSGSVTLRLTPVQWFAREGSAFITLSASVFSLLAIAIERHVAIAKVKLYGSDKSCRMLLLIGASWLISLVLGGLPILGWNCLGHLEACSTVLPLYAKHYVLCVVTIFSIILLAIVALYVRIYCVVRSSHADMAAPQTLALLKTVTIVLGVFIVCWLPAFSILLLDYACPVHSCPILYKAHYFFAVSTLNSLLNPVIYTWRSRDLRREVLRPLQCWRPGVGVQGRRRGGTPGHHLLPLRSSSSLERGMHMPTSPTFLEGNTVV

ΔPDZ S1PR2 = ΔPDZ S1PR2 (Homo sapiens, UniProt O95136); assay: Label-free DMR agonist response, HEK293T expressing ΔPDZ S1PR2
ΔPDZ S1PR2, sequence (O95136 1-349 limits assumed, stated change not applied): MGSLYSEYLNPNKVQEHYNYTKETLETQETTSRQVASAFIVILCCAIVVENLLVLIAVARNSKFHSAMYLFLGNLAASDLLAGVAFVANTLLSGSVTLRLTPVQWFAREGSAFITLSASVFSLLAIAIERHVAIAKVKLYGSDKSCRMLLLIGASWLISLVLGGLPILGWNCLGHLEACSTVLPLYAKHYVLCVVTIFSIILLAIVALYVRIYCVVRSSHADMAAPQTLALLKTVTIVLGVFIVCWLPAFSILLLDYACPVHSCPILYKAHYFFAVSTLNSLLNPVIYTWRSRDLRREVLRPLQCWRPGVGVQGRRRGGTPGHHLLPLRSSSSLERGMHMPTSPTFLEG

WT C3AR1 = WT C3AR1 (Homo sapiens, UniProt Q16581); assay: Label-free DMR agonist response, HEK293T expressing WT C3AR1
WT C3AR1, sequence (Q16581 whole entry): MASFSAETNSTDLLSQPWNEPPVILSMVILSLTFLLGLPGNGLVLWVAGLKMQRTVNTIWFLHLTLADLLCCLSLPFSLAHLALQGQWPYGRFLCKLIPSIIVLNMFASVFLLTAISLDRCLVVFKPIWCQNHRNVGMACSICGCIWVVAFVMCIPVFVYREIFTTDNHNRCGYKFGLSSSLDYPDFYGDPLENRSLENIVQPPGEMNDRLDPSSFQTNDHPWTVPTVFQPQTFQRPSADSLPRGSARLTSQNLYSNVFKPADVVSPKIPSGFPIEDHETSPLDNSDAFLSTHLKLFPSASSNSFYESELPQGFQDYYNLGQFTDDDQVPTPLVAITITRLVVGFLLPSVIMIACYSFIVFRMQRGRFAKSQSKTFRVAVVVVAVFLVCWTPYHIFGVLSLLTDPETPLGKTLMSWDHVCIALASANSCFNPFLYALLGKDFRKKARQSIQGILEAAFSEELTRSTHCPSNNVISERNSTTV

ΔPDZ C3AR1 = ΔPDZ C3AR1 (Homo sapiens, UniProt Q16581); assay: Label-free DMR agonist response, HEK293T expressing ΔPDZ C3AR1
ΔPDZ C3AR1, sequence (Q16581 1-478 limits assumed, stated change not applied): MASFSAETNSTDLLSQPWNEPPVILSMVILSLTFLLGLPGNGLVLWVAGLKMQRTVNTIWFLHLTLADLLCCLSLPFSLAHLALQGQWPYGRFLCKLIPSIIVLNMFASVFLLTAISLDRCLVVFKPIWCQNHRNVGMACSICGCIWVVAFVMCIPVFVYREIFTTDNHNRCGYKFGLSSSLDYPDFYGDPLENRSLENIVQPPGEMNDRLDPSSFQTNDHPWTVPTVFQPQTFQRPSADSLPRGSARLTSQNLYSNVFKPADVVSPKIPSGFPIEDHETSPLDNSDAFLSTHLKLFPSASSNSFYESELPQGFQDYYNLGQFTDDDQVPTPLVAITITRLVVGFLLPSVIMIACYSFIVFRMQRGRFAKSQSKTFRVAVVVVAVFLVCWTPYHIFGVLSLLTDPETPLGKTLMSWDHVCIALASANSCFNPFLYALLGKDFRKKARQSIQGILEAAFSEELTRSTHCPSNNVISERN

ΔPDZ P2RY1, sequence (P47900 1-369 limits assumed, stated change not applied): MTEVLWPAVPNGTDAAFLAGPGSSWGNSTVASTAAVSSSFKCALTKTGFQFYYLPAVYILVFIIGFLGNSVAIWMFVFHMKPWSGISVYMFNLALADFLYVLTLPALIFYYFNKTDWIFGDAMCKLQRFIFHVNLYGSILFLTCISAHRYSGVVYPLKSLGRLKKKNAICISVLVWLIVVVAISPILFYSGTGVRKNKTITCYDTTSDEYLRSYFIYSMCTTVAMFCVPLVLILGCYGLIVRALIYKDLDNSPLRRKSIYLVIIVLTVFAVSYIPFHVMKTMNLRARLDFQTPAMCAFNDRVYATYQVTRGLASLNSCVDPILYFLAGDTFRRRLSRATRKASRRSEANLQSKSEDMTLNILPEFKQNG
WT P2RY1, sequence (P47900 whole entry): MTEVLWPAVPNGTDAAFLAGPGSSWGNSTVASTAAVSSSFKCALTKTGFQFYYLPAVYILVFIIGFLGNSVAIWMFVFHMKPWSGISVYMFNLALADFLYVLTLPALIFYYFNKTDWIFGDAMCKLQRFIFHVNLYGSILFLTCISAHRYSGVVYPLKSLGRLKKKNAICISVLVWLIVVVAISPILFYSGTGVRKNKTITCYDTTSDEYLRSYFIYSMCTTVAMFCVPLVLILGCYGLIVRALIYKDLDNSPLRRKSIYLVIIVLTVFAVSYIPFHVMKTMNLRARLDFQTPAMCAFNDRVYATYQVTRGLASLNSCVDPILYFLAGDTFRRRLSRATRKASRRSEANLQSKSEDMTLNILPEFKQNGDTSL

SMILES: O=c1ccn([C@@H]2O[C@H](COP(=O)(O)OP(=O)(O)OP(=O)(O)O)[C@@H](O)[C@H]2O)c(=O)[nH]1 [UTP]
- WT pEC50 (WT P2RY1; HEK293T, WT P2RY1, DMR CRC): −5.39 ± 0.15
- WT Max (DMR) (WT P2RY1; HEK293T, WT P2RY1, maximal agonist DMR response): 116.19 ± 2.22
- WT TTP (WT P2RY1; HEK293T, WT P2RY1, time to peak DMR): 4.87 s
- Agonist potency (in words) (WT P2RY1; P2Y receptors (P2RY1), DMR): micromolar
- ΔPDZ pEC50 (ΔPDZ P2RY1; ΔPDZ P2RY1, DMR CRC): −5.69 ± 0.19
- ΔPDZ Max (DMR) (ΔPDZ P2RY1; ΔPDZ P2RY1, maximal agonist DMR response): 118.68 ± 10.27
- ΔPDZ TTP (ΔPDZ P2RY1; ΔPDZ P2RY1, time to peak DMR): 5.27 s
- WT pEC50 (WT P2RY12; HEK293T, WT P2RY12, DMR CRC): −5.47 ± 0.07
- WT Max (DMR) (WT P2RY12; HEK293T, WT P2RY12, maximal agonist DMR response): 170.04 ± 2.93
- WT TTP (WT P2RY12; HEK293T, WT P2RY12, time to peak DMR): 5.40 s
- Agonist potency (in words) (WT P2RY12; P2Y receptors (P2RY12), DMR): micromolar
- ΔPDZ pEC50 (ΔPDZ P2RY12; ΔPDZ P2RY12, DMR CRC): −5.70 ± 0.08
- ΔPDZ Max (DMR) (ΔPDZ P2RY12; ΔPDZ P2RY12, maximal agonist DMR response): 192.60 ± 6.35
- ΔPDZ TTP (ΔPDZ P2RY12; ΔPDZ P2RY12, time to peak DMR): 5.20 s

- WT Max (DMR) (WT S1PR2; WT S1PR2, maximal agonist DMR response): −40.54 ± 3.76
- WT TTP (WT S1PR2; WT S1PR2, time to peak DMR): 17.61 s
- ΔPDZ Max (DMR) (ΔPDZ S1PR2; ΔPDZ S1PR2, maximal agonist DMR response): −10.16 ± 4.91
- ΔPDZ TTP (ΔPDZ S1PR2; ΔPDZ S1PR2, time to peak DMR): 16.31 s
SMILES: CCCCCCCCCCCCC/C=C/[C@@H](O)[C@@H](N)COP(=O)(O)O [Sphingosine-1-phosphate, sphingosine-1-phosphate]

SMILES: NC(=O)Cc1ccccc1 [Benzeneacetamide, benzeneacetamide]
- WT Max (DMR) (WT C3AR1; WT C3AR1, maximal agonist DMR response): 36.90 ± 1.82
- WT TTP (WT C3AR1; WT C3AR1, time to peak DMR): 4.50 s
- ΔPDZ Max (DMR) (ΔPDZ C3AR1; ΔPDZ C3AR1, maximal agonist DMR response): 38.77 ± 2.59
- ΔPDZ TTP (ΔPDZ C3AR1; ΔPDZ C3AR1, time to peak DMR): 3.50 s
